Test results reported in US12357695B2, “Peptides and nanoparticles for intracellular delivery of molecules” (AADIGEN, LLC, priority 2019, dated 2025).
Entries after “also recorded” stand apart in the source; their conditions may differ.

Tests used:
mice [1] = assay: In vivo delivery of Luciferase mRNA, intravenous administration, bioluminescence imaging; details: 5 μg Luc mRNA, single dose
Procedure: FIGS. 4A-4D show the potency of ADGN-peptide variants for in vivo delivery of Luciferase mRNA via intravenous administration in mice. ADGN-peptide/luc mRNA particles containing 5 μg mRNA were formed in sterile water, and then diluted in 5% sucrose. Mice received IV injection of 100 μl ADGN-peptide/mRNA complexes. mRNA LUC expression was monitored by bioluminescence imaging after 12 h, 24 h, 48 h and 72 h. FIG. 4B show bioluminescence imaging at 24 hr in control and treated groups. Semi-quantitative data of luciferase signal in the liver (C) and in the lung (D) were obtained using the manufacturer's software (Living Image; PerkinElmer). Results were then expressed as values relative to day 0.
(§1) Stable ADGN-peptides/mRNA were evaluated for in vivo delivery of Luciferase mRNA via intravenous and intramuscular administrations. Animals were treated with single dose of 5 moU modified Luc mRNA of 5 μg. 5 moU modified Luc mRNA (5 μg) in sterile water (GIBCO) were mixed with ADGN peptide (sterile water), volume for each sample was adjusted to 100 μl, with sterile water containing 5% Sucrose. Samples were mixed gently with vortex for 1 minute at low speed and incubated for 30 min at room temperature. Samples were filtered on 0.45 μm PES filters prior administration. For IV administration Mice received 100 μl intravenous (IV) injection of either ADGN-106/mRNA, ADGN-100/mRNA, ADGN-106RI/mRNA, ADGN-100-stearyl/mRNA, ADGN-100Hydro1/mRNA, ADGN-100Hydro2 or ADGN/mRNA complexes containing 10% of ADGN-100PEG (3 animals per group). As control, mice from group 3 (2 animals per group) received IV injection of 100 μl of naked 5 moU modified Luc mRNA (5 μg). For IM administration, mice received 25 μl (5 μg mRNA) IV injection of either ADGN-100/mRNA, ADGN-106/mRNA, ADGN-106RI/mRNA or ADGN/mRNA complexes containing 10% or 20% of ADGN-100PEG (2 animals per group). As control, mice from group 3 (2 animals per group) received IV injection of 25 μl of naked 5 moU modified Luc mRNA (5 μg).
(§2) mRNA Luc expression was monitored by bioluminescence. Bioluminescence imaging was performed after 12, 24, 48 and 72 hrs. Mice received an i.p. injection of 150 μg/g luciferin for noninvasive bioluminescence imaging (IVIS Kinetic; PerkinElmer, Waltham, MA, USA).

mice [2] = assay: In vivo delivery of pGL4 plasmid DNA, intramuscular administration, bioluminescence imaging; details: IM, 2.5 μg pGL4 plasmid
Procedure: FIGS. 7A-7B show the potency of ADGN-peptide variants for in vivo delivery of Luciferase expressing plasmid pGL4 via intramuscular administration in mice. ADGN-peptide/pGL4 luc particles containing 2.5 μg plasmid DNA were formed in sterile water, and then diluted in 5% sucrose. Mice received IV injection of 25 μl ADGN-peptide/pGL4 complexes. Luciferase expression was monitored by bioluminescence imaging after 12 h, 24 h and 48h (A). FIG. 7B show bioluminescence imaging at 24 hr in control and treated groups.
(§3) Stable ADGN-peptides/pGL4.11 DNA were evaluated for in vivo delivery of Luciferase mRNA via intravenous and intramuscular administrations. Animals were treated with single dose of pGL4.11 plasmid DNA of 5 μg. via IV and 2.5 μg via intramuscular administration.
For IM administration, mice received 25 μl (2.5 μg of pGL4 plasmid) IV injection of either ADGN-100/PGL4, ADGN-106/PGL4, ADGN-100RI/PGL4, ADGN-100hydro1/PGL4, ADGN-100hydro6/PGL4, ADGN-100 stearyl/PGL4 or ADGN-100/PGL4 complexes containing 10% or 20% of ADGN-100PEG (2 animals per group). As control, mice from group 3 (2 animals per group) received IV injection of 25 μl of naked PGL4 plasmid (2.5 μg).
(§4) Luciferase expression was monitored by bioluminescence. Bioluminescence imaging was performed after 12, 24, 48 and 72 hrs. Mice received an i.p. injection of 150 μg/g luciferin for noninvasive bioluminescence imaging (IVIS Kinetic; PerkinElmer, Waltham, MA, USA).

mice or rat models = assay: Summary of cargo delivery to targeted organ (Table 1); assay type: in vivo; details: cargoes and route (IV, IM, SQ, NB) per peptide as listed in Table 1
Excerpt: Table 1 lists a summary of cell-penetrating peptides that have been proven successful in delivering various cargo molecules to on or more targeted organ (e.g., by intravenous (IV), intramuscular (IM), or subcutaneous (SQ) administration, or intratraccheal instillation or nebulization (NB)) in mice or rat models.

mice [3] = assay: In vivo delivery of pGL4 plasmid DNA, intravenous administration, bioluminescence imaging; details: 5 μg pGL4 plasmid
Procedure: FIGS. 6A-6C show the potency of ADGN-peptide variants for in vivo delivery of Luciferase expressing plasmid pGL4 via intravenous administration in mice. ADGN-peptide/pGL4 particles containing 5 μg plasmid DNA were formed in sterile water, and then diluted in 5% sucrose. Mice received IV injection of 100 μl ADGN-peptide/plasmid complexes. pGL4 Luciferase expression was monitored by bioluminescence imaging after 12 h, 24h, 48h and 72h. […] Results were then expressed as values relative to day 0.
as §3
pGL4.11 DNA plasmid (5 μg) in sterile water (GIBCO) were mixed with ADGN peptide (sterile water), volume for each sample was adjusted to 100 μl, with sterile water containing 5% Sucrose. Samples were mixed gently with vortex for 1 minute at low speed and incubated for 30 min at room temperature. Samples were filtered on 0.45 μm PES filters prior administration. For IV administration Mice received 100 μl IV injection of either ADGN-106/pGL4, ADGN-100/pGL4, ADGN-100RI/pGL4, ADGN-100-stearyl/PGL4, ADGN-100Hydro1/PGL4, ADGN-100Hydro2/PGL4, ADGN100 Hydro6/PGL4 or ADGN/PGL4 complexes containing 10% or 20% of ADGN-100PEG (3 animals per group). As control, mice from group 3 (2 animals per group) received IV injection of 100 μl of naked pGL4 plasmids (5 μg).
as §4

mice [4] = assay: In vivo delivery of Luciferase mRNA, intramuscular administration, bioluminescence imaging; details: IM, Luc mRNA
Procedure: FIGS. 5A-5B show the potency of ADGN-peptide variants for in vivo delivery of Luciferase mRNA via intramuscular administration in mice. ADGN-peptide/luc mRNA particles containing 2.5 μg mRNA were formed in sterile water, and then diluted in 5% sucrose. Mice received […] injection o 25 μl ADGN-peptide/mRNA complexes. mRNA LUC expression was monitored by bioluminescence imaging after 12 h, 24 h and 48h (A). FIG. 5B show bioluminescence imaging at 24 hr in control and treated groups.
as §1, §2

Ac-YIGSR-(G)4-KWRSALWRWRLWRVRSWSR-NH2 (Ac-YIGSRGGGGKWRSALWRWRLWRVRSWSR-NH2) [ADGN-100-Hydro-1]
mRNA / luciferase expression and tissues (mice [1]): negligible luciferase expression | luciferase expression (mice [2]): no significant expression | Targeted Organ (mice or rat models): Lung/Kidney/; also recorded: Liver | luciferase expression and tissues (mice [3]): negligible luciferase expression

Ac-GYVS-Aun(CH2)6-ALWRALWRLWRSLWRLLWKA-NH2 [ADGN-106 hydro-6]
increase of luciferase expression in the muscle / efficiency relative to ADGN-106 (mice [4]): 4 fold | luciferase expression (mice [4]): mediated Luciferase expression following intramuscular (IM) administration | Targeted Organ (mice or rat models): Tumor/Pancreas/ and Lung
